Our source for the GI50 and IC50 values is patent US20240262807A1, “COMPOUND USED AS BCR-ABL INHIBITOR” (CHIA TAI TIANQING PHARMACEUTICAL GROUP CO., LTD., priority 2021, published 2024).

Assay [1] deals with T1, Ba/F3-BCR-ABL1-T315I-C3 cells (Homo sapiens, UniProt P00519, T315I, cells depend on it).
T1 construct: fused on or other part: P11274 (Breakpoint cluster region protein)
The assay is described as follows: Inhibitory effect of compounds on proliferation of BCR-ABL T315I-transfected Ba/F3 cells (CCK-8). The format is cell-based. The following applies: 72 h with compound, CCK-8, 5% serum, read-out: IC50 (nM) Ba/F3-BCR-ABL1 T315I. The method, then:
Ba/F3-BCR-ABL1-T315I-C3 cells in logarithmic growth phase and good cell condition were added to a centrifuge tube and centrifuged at 1000 rpm for 5 min in a low speed centrifuge. The supernatant was discarded, and 5 mL of complete medium (RPMI 1640 basic medium+10% FBS) was added using a pipette for cell resuspension. The cells were counted using a cell counter, diluted with complete medium to a cell density of 6×10^4 cells/mL, and an equivalent amount of RPMI 1640 basic medium was added to adjust the serum concentration to 5% and the cell density to 3×10^4 cells/mL for plate seeding. The cells were seeded on a 96-well plate at 100 μL/well using a multi-channel pipette and cultured in a cell incubator at 37° C. 5% CO2 and saturated humidity. After 24 h incubation, compounds were loaded using a nanoliter pipettor, 8 concentrations (1000 nM, 250 nM, 63 nM, 16 nM, 3.9 nM, 0.98 nM, 0.24 nM, 0.061 nM) were set for each compound, and 2 replicate wells were set for each concentration; cells with no compounds added were taken as a negative control, and a plating medium with no cells added was taken as a blank control. After 72 h. […] Inhibition rate (%)=(mean value of negative control group−mean value of experimental group)/(mean value of negative control group−mean value of blank group)×100%. A dose-response curve was fitted by four-parameter analysis, with the logarithm of compound concentration serving as abscissa and inhibition rate serving as ordinate, such that ICso was calculated.

The subject of another assay is K562 cells. The assay is described as follows: Inhibitory effect of compounds on proliferation of K562 cells (CCK-8). To be noted: Homo sapiens, 72 h with compound, CCK-8, 5% serum. Type of assay: cell-based. How it is done: K562 cells in logarithmic growth phase and good cell condition were added to a centrifuge tube and centrifuged at 1000 rpm for 5 min in a low speed centrifuge. […] The cells were seeded on a 96-well plate at 100 µL/well using a multi-channel pipette and cultured in a cell incubator at 37° ° C. 5% CO2 and saturated humidity. […] Inhibition rate (%)=(mean value of negative control group−mean value of experimental group)/(mean value of negative control group−mean value of blank group)×100%. A dose-response curve was fitted by four-parameter analysis, with the logarithm of compound concentration serving as abscissa and inhibition rate serving as ordinate, such that IC50 was calculated.

For `O=C(Nc1ccc(OC(F)(F)Cl)cc1)c1cnc(N2CC3CC(C2)O3)c(-c2cnn3c2COCC3)c1` [Compound 39], the GI50 in assay [1] was found to be 2.4 nM. The IC50 (usually the midpoint of a concentration-inhibition curve) with K562 cells was determined as 5.9 nM.
Consider `CO[C@@H]1CCN(c2ncc(C(=O)Nc3ccc(OC(F)(F)Cl)cc3)cc2-c2cnn3c2COCC3)C1` [Compound 41], for which the GI50 in assay [1] is 3.4 nM. Also, the IC50 in the assay with K562 cells was determined as 2.1 nM.
Regarding `O=C(Nc1ccc(OC(F)(F)Cl)cc1)c1cnc(N2CCCC2)c(-c2cnn3c2COCC3)c1` [Compound 42], the GI50 in assay [1] is 3.5 nM. The IC50 in the assay on K562 cells amounted to 2.3 nM.
Regarding `O=C(Nc1ccc(OC(F)(F)Cl)cc1)c1cnc(N2CCOCC2)c(-c2cnn3c2COCC3)c1` [Compound 43], the GI50 in assay [1] came out at 4 nM. The IC50 in the assay on K562 cells worked out at 2.2 nM.
Regarding `O=C(Nc1ccc(OC(F)(F)Cl)cc1)c1cnc(N2CC3CCC(C2)O3)c(-c2cnn3c2COCC3)c1` [Compound 44], the GI50 in assay [1] was 2.4 nM. In addition, in the assay on K562 cells, the IC50 is 4.5 nM.
For `Cn1cnc(-c2cc(C(=O)Nc3ccc(OC(F)(F)Cl)cc3)cnc2N2CCCC2)cc1=O` [Compound 45], the GI50 in assay [1] turned out to be 8.1 nM. Moreover, the half-maximal inhibitory concentration (IC50) with K562 cells amounted to 4.2 nM.
Consider `Cn1cnc(-c2cc(C(=O)Nc3ccc(OC(F)(F)Cl)cc3)cnc2N2CC[C@@H](O)C2)cc1=O` [Compound 46], for which the GI50 in assay [1] came out at 26 nM. Also, the half-inhibitory concentration (IC50) in the assay on K562 cells turned out to be 26 nM.
As for `Cn1ncc(-c2cc(C(=O)Nc3ccc(OC(F)(F)Cl)cc3)cnc2N2CCCC2)cc1=O` [Compound 47], the GI50 in assay [1] worked out at 1.8 nM. Further, in the assay with K562 cells, the IC50 came out at 2.6 nM.
With `Cn1cnc(-c2cc(C(=O)Nc3ccc(OC(F)(F)Cl)cc3)cnc2N2CC[C@@H](F)C2)cc1=O` [Compound 53], the GI50 in assay [1] was found to be 2.7 nM. Besides, the half-inhibitory concentration (IC50) in the assay on K562 cells is 3 nM.
Consider `Cn1cnc(-c2cc(C(=O)Nc3ccc(OC(F)(F)Cl)cc3)cnc2N2CCOCC2)cc1=O` [Compound 54], for which the GI50 in assay [1] was 6.4 nM. The 50% inhibitory concentration (IC50) in the assay with K562 cells worked out at 8.5 nM.
Regarding `C[C@@H]1COCCN1c1ncc(C(=O)Nc2ccc(OC(F)(F)Cl)cc2)cc1-c1cc(=O)n(C)cn1` [Compound 56], the GI50 in assay [1] turned out to be 12 nM. Besides, the half-inhibitory concentration (IC50) in the assay on K562 cells is 18 nM.
In the case of `Cn1cncc(-c2cc(C(=O)Nc3ccc(OC(F)(F)Cl)cc3)cnc2N2CCOCC2)c1=O` [Compound 60], the GI50 in assay [1] amounted to 4 nM. For the same molecule, the half-maximal inhibitory concentration (IC50) in the assay with K562 cells was 6.3 nM.
For `CO[C@@H]1CCN(c2ncc(C(=O)Nc3ccc(OC(F)(F)Cl)cc3)cc2-c2cc(=O)n(C)cn2)C1` [Compound 63], in assay [1], the GI50 stood at 6 nM. The half-maximal inhibitory concentration (IC50) in the assay on K562 cells is 5.2 nM.
Take `Cn1cnc(-c2cc(C(=O)Nc3ccc(OC(F)(F)Cl)cc3)cnc2N2CCC(F)(F)CC2)cc1=O` [Compound 64]: in assay [1], the GI50 was 8.1 nM. Further, the 50% inhibitory concentration (IC50) in the assay on K562 cells was 9.1 nM.
On to `Cn1cnc(-c2cc(C(=O)Nc3ccc(OC(F)(F)Cl)cc3)cnc2N2CCSCC2)cc1=O` [Compound 67], for which the GI50 in assay [1] came out at 6.1 nM. For the same molecule, in the assay on K562 cells, the IC50 is 12 nM.
For `Cn1cnc(-c2cc(C(=O)Nc3ccc(OC(F)(F)Cl)cc3)cnc2N2CC(F)(F)C2)cc1=O` [Compound 72] the same measures were 6.3 nM and 9.2 nM.
On to `C[C@@H]1CCN1c1ncc(C(=O)Nc2ccc(OC(F)(F)Cl)cc2)cc1-c1cc(=O)n(C)cn1` [Compound 76], for which the GI50 in assay [1] worked out at 2.2 nM. Also, the concentration for half-maximal inhibition (IC50) in the assay with K562 cells was 2.2 nM.
With `Cn1ncc(-c2cc(C(=O)Nc3ccc(OC(F)(F)Cl)cc3)cnc2N2CC3CC(C2)O3)cc1=O` [Compound 83], the GI50 in assay [1] is 4.1 nM. Moreover, in the assay with K562 cells, the IC50 came to 3.2 nM.
On to `Cn1cccc(-c2cc(C(=O)Nc3ccc(OC(F)(F)Cl)cc3)cnc2N2CCOCC2)c1=O` [Compound 86], for which the GI50 in assay [1] was determined as 14 nM. For the same molecule, the IC50 in the assay on K562 cells was found to be 24 nM.
On to `Cn1ncc(-c2cc(C(=O)Nc3ccc(OC(F)(F)Cl)cc3)cnc2N2CC3CCC(C2)O3)cc1=O` [Compound 91], for which, in assay [1], the GI50 came to 4.1 nM. The IC50 in the assay with K562 cells worked out at 6.6 nM.
For `CN1CCc2cc(-c3cc(C(=O)Nc4ccc(OC(F)(F)Cl)cc4)cnc3N3CC[C@@H](O)C3)[nH]c2C1=O` [Compound 94] the same measures were 0.88 nM and 0.71 nM.
